Consider 10 compounds from PubChem BioAssay (NCI).

Holding throughout (test): DTP human tumour cell line panel, 48 h
Assay [1] concerns HCT-116 colon.
Assay [2] concerns HCT-15 colon.
Assay [3] deals with HL-60(TB) leukemia.
The subject of assay [4] is M14 melanoma.
In assay [5] the test system is NCI-H226 lung.
The subject of assay [6] is NCI-H23 lung.
The subject of assay [7] is PC-3 prostate.
Assay [8] deals with UACC-257 melanoma.

By GI50 is commonly meant the concentration that inhibits growth by half. For orientation: TGI means the concentration at which net growth stops. Low values mean more potent growth arrest, high ones less potent growth arrest.

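1) Cells in 96-well plates. 2) Compound, 48 h, 5 concentrations. 3) Linear interpolation between surrounding doses. 4) Unreached endpoint = highest concentration. The concentration for 50% growth inhibition is given as GI50. TGI is the concentration that stops growth completely.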

As to `Oc1ccc2ccccc2c1N=Nc1nccs1`, the GI50 is 0.213 µM in assay [1]; 0.32 µM in assay [2]; 0.267 µM in assay [3]; 2.97 µM in assay [4]; 2.75 µM in assay [5]; 5.83 µM in assay [6]. Besides, the GI50 is 1.13 µM in assay [7] and 3.1 µM in assay [8]. The TGI in assay [1] is 6.09 µM; in assay [2], 19.6 µM; in assay [3], > 100 µM; in assay [4], 18.3 µM; in assay [5] it was > 52.9 µM; in assay [6] it was 27.8 µM. Besides, the figures for the TGI in assay [7] and in assay [8] were > 66.1 µM and 16.4 µM, respectively.
For `OCc1c[nH]c2ccccc12`, the GI50 in assay [1] is 17.2 µM; in assay [2] it was 20.3 µM; in assay [3], 35.1 µM; in assay [4] it was 23.4 µM; in assay [5], 17.4 µM; in assay [6] it was 19.5 µM. Also, the values for the GI50 in assay [7] and in assay [8] were 15.5 µM and 22.9 µM, respectively. The TGI in assay [1] turned out to be 31.9 µM; in assay [2], 55.3 µM; in assay [3], 77.3 µM; in assay [4], 54.1 µM; in assay [5] it was 48.1 µM; in assay [6], 48.1 µM. Also, the TGI was 45.3 µM in assay [7] and 74 µM in assay [8].
Consider `N#Cc1ccc(O)c(C2=NCC(c3cccc(Oc4ccccc4)c3)O2)c1` (configuration not stated), for which the GI50 was 0.587 µM in assay [1]; 0.363 µM in assay [2]; 0.852 µM in assay [3]; 1.7 µM in assay [5]; 1.27 µM in assay [6]; 0.938 µM in assay [7]. Moreover, the GI50 in assay [8] is 2.28 µM. Moreover, the TGI is 13.7 µM in assay [1]; 36.1 µM in assay [2]; 9.29 µM in assay [3]; 11.1 µM in assay [5]; > 100 µM in assay [6]; 41.6 µM in assay [7]. Also, in assay [8], the TGI was determined as 7.29 µM.
Take `CC(C)c1nc(CN(C)C(=O)N[C@H](C(=O)N[C@@H](Cc2ccccc2)C[C@H](O)[C@H](Cc2ccccc2)NC(=O)OCc2cncs2)C(C)C)cs1`: the GI50 in assay [1] was 19.9 µM; in assay [2], 24.5 µM; in assay [3] it was 12.2 µM; in assay [4], 18 µM; in assay [5] it was 18.8 µM; in assay [6] it was 42.6 µM. For the same compound, the GI50 is 20.8 µM in assay [7] and 18.4 µM in assay [8]. The TGI was 50.1 µM in assay [1]; > 100 µM in assay [2]; 36.9 µM in assay [3]; 41.7 µM in assay [4]; 39.4 µM in assay [5]; > 100 µM in assay [6]. Besides, the TGI in assay [7] amounted to 79.2 µM; in assay [8], 38 µM.
For `COc1ccc(-c2cc(=O)c3c(OC)c(OC)c(OC)cc3o2)cc1`, the TGI in assay [1], in assay [2], in assay [3], in assay [4], in assay [5] and in assay [6] was > 100 µM in each case. Moreover, in assay [8], the TGI is > 100 µM.
For the compound `CC/C(=C(/c1ccc(O)cc1)c1ccc(OCCNC)cc1)c1ccccc1`, the GI50 in assay [1] was 1.68 µM; in assay [2], 1.87 µM; in assay [3], 2.03 µM; in assay [4], 1.69 µM; in assay [5], 5.03 µM; in assay [6], 2.6 µM. The figures for the GI50 in assay [7] and in assay [8] were 1.95 µM and 1.64 µM, respectively. Besides, the TGI is 3.12 µM in assay [1]; 4.07 µM in assay [2]; 4.55 µM in assay [3]; 3.31 µM in assay [4]; 20.3 µM in assay [5]; 7.25 µM in assay [6]. Besides, the TGI is 5.45 µM in assay [7] and 3.15 µM in assay [8].
With `COc1cc(C2=NOC(c3cc(OC)c(OC)c(OC)c3)C2)ccc1OCCCCOc1cc2c(cc1OC)C(=O)N1CCC[C@H]1C=N2` (some centres not stated), the GI50 in assay [1] was 0.216 µM; in assay [2], 1.46 µM; in assay [3], 0.309 µM; in assay [4] it was 0.206 µM; in assay [6] it was 0.241 µM; in assay [7], 0.347 µM. Moreover, the GI50 in assay [8] is 0.286 µM. In addition, the TGI in assay [1] stood at 0.575 µM; in assay [2], 5.43 µM; in assay [3], 6.5 µM; in assay [4], 0.432 µM; in assay [6] it was 0.559 µM; in assay [7], 3.1 µM. The same compound came in with a TGI in assay [8] of 0.727 µM.
`C=CC(=O)N1CC2(CCN(c3nc(OC4CCN(CCCOC)CC4)nc4c(OCC(F)(F)F)c(-c5c(C)ccc6[nH]ncc56)c(C5CC5)cc34)CC2)C1`: the GI50 in assay [1] was 1.95 µM; in assay [2] it was 1.66 µM; in assay [3] it was 1.76 µM; in assay [4] it was 2 µM; in assay [5], 3.66 µM; in assay [7], 2.61 µM. Moreover, the GI50 in assay [8] was 3.03 µM. In addition, the TGI came to 4.17 µM in assay [1]; 3.21 µM in assay [2]; 4.57 µM in assay [3]; 3.97 µM in assay [4]; 16.5 µM in assay [5]; 1.95 µM in assay [6]. In addition, the TGI in assay [7] came to 9.86 µM; in assay [8], 12.4 µM.
On to `CCN(CC)c1ccc(/C=C/c2ccc3cc(C)ccc3[n+]2CC)cc1`, for which the GI50 in assay [1] is 0.033 µM; in assay [2], 1.32 µM; in assay [3], 0.0297 µM; in assay [4], 0.182 µM; in assay [5], 0.152 µM; in assay [6], 0.0303 µM. Besides, the GI50 in assay [7] is 0.0664 µM; in assay [8], 0.116 µM. The TGI in assay [1] was 2.57 µM; in assay [2], 12.9 µM; in assay [3], 0.429 µM; in assay [4], 1.63 µM; in assay [5], 9.85 µM; in assay [6], 12.5 µM. The TGI in assay [7] was found to be 6.17 µM; in assay [8], 1.28 µM.
Turning to `Nc1nc(Cl)c2ncn(Cc3ccc(C45CC6CC(CC(C6)C4)C5)c(O)c3)c2n1`, the GI50 is 1.1 µM in assay [1]; 8.78 µM in assay [2]; 1.22 µM in assay [3]; 12 µM in assay [5]; 1.73 µM in assay [7]; 0.578 µM in assay [8]. Further, the TGI stood at 3.15 µM in assay [1]; 25.5 µM in assay [2]; 11.7 µM in assay [3]; 42.9 µM in assay [5]; 4.44 µM in assay [7]; 4.86 µM in assay [8].
